Data on nine molecules can be found in DBAASP.

Values after ≈ are worked out from the molar mass of the structure shown. Values joined by “and” are separate entries in the source; they are usually repeats but may differ in a detail not shown here. Equal entries are not always repeated. Bounds are passed on as bounds.

Some test systems named below: Escherichia coli; Candida albicans; Staphylococcus aureus; Aspergillus nidulans; Streptococcus gordonii; Vibrio cholerae non-O139; Vibrio cholerae non-O1; Escherichia coli D31; Escherichia coli AS1.349; Bacillus cereus AS1.126.
Common to all, as to test: ≥ marks a high value that may be exact or a test limit, other limits are often not marked, values filed in µg/mL are converted to µM
Assay [1] deals with Streptococcus pneumoniae BCRC 10794.
The subject of assay [2] is Staphylococcus aureus BCRC 10780.
Assay [3] concerns Enterococcus faecalis FA2-2.
The subject of assay [4] is Bacillus subtilis ATCC 11774.
Assay [5] has as its system Pseudomonas aeruginosa ATCC 10145.
Assay [6] concerns Enterococcus faecalis OG1X.
The test system of assay [7] is Porphyromonas gingivalis ATCC 33277.
Assay [8] concerns Escherichia coli ATCC 12014.
In assay [9] the test system is Staphylococcus aureus ATCC 6538.
Assay [10] deals with Salmonella enterica subsp. enterica serovar Typhimurium ATCC BAA-215.
The test system of assay [11] is Staphylococcus aureus ATCC 25023.
The subject of assay [12] is Staphylococcus epidermidis PIA 8400.
Assay [13] relates to Escherichia coli ATCC 25922.
Assay [14] concerns Enterococcus faecalis ATCC 29212.
In assay [15] the test system is Staphylococcus aureus ATCC 29213.
Assay [16] concerns Pseudomonas aeruginosa ATCC 27853.
For assay [17], the system named is Salmonella enterica subsp. enterica serovar Typhi DMST 22842.
The subject of assay [18] is Staphylococcus epidermidis ATCC 12228.
In assay [19] the test system is Staphylococcus aureus ATCC 25923.
Assay [20] concerns Micrococcus luteus DSM 20030.
Assay [21] deals with Listeria monocytogenes LO28.
Assay [22] concerns Cronobacter sakazakii DPC 6440.
Assay [23] concerns Lactococcus lactis AS1.1690.
The subject of assay [24] is Klebsiella aerogenes CGMCC 1.876.
Assay [25] relates to Klebsiella pneumoniae subsp. pneumoniae CGMCC 1.176.
Assay [26] relates to Staphylococcus aureus AS1.72.
Assay [27] deals with Enterococcus faecalis CGMCC 1.595.
Assay [28] relates to Enterococcus faecium CGMCC 1.2334.
Assay [29] relates to Pseudomonas aeruginosa CGMCC 1.860.
For assay [30], the system named is Enterobacter cloacae CGMCC 1.58.

`CC[C@H](C)[C@H](NC(=O)[C@H](CO)NC(=O)[C@@H]1CCCN1C(=O)[C@H](CCCN=C(N)N)NC(=O)[C@H](Cc1c[nH]c2ccccc12)NC(=O)[C@H](Cc1c[nH]c2ccccc12)NC(=O)[C@H](Cc1ccc(O)cc1)NC(=O)[C@H](CCC(N)=O)NC(=O)[C@H](CCCCN)NC(=O)[C@H](CC(C)C)NC(=O)[C@@H]1CCCN1C(=O)[C@@H](N)Cc1cnc[nH]1)C(=O)O` [HPLKQYWWRPSI]: the MIC with Escherichia coli is more than 125 µM; in the assay on Candida albicans, 11 µM (≈ 17.7 µg/mL); against Staphylococcus aureus, more than 125 µM; in the assay on Aspergillus nidulans, 21.9 µM (≈ 35.4 µg/mL).

`CC[C@H](C)[C@H](NC(=O)[C@H](CCSC)NC(=O)[C@H](CCCCN)NC(=O)CNC(=O)[C@H](C)NC(=O)[C@H](Cc1cnc[nH]1)NC(=O)[C@H](Cc1ccccc1)NC(=O)[C@H](CC(C)C)NC(C)=O)C(=O)N[C@@H](Cc1cnc[nH]1)C(N)=O` [LFHAGKMIH]: the MIC in assay [1] and in assay [2] was not below 94.9 µM in each case.

With `CC[C@H](C)[C@H](NC(=O)[C@H](CCCCN)NC(=O)[C@H](CCC(=O)O)NC(=O)[C@H](CCCCN)NC(=O)[C@H](CO)NC(=O)[C@H](CCCCN)NC(=O)[C@@H](N)CCCN=C(N)N)C(=O)NCC(=O)N[C@@H](CCCCN)C(=O)N[C@@H](CCC(=O)O)C(=O)N[C@@H](Cc1ccccc1)C(=O)N[C@@H](CCCCN)C(=O)N[C@@H](CCCN=C(N)N)C(=O)N[C@H](C(=O)N[C@H](C(=O)N[C@@H](CCC(N)=O)C(=O)N[C@@H](CCCN=C(N)N)C(=O)N[C@H](C(=O)N[C@@H](CCCCN)C(=O)N[C@@H](CC(=O)O)C(=O)N[C@@H](Cc1ccccc1)C(=O)O)[C@@H](C)CC)C(C)C)[C@@H](C)CC` [RKSKEKIGKEFKRIVQRIKDF], the MIC is 4.75 µM (≈ 12.5 µg/mL) in assay [3]; 0.038 µM (≈ 0.1 µg/mL) in [4]; not below 38 µM in assay [5]; 19 µM (≈ 50 µg/mL) in assay [6]; 4.75 µM (≈ 12.5 µg/mL) in assay [7]; 0.152 µM (≈ 0.4 µg/mL) in [8]. Moreover, the minimum inhibitory concentration (MIC) turned out to be 19 µM (≈ 50 µg/mL) in assay [9], 19 µM (≈ 50 µg/mL) in assay [10] and 2.37 µM (≈ 6.25 µg/mL) against Streptococcus gordonii.

Take `CC(C)C[C@H](NC(=O)[C@H](CC(C)C)NC(=O)[C@H](CC(C)C)NC(=O)[C@H](CC(C)C)NC(=O)[C@H](CC(C)C)NC(=O)[C@H](CCCCN)NC(=O)[C@H](CC(C)C)NC(=O)[C@@H](N)CCCN=C(N)N)C(=O)N[C@@H](CCCN=C(N)N)C(=O)N[C@@H](Cc1c[nH]c2ccccc12)C(N)=O` [RLKLLLLLRW]: in assay [11], the MIC stood at 3.02 µM (≈ 4 µg/mL).

In the case of `CC[C@H](C)[C@H](NC(=O)[C@H](CCCCN)NC(=O)[C@@H](NC(=O)[C@H](CCCN=C(N)N)NC(=O)[C@H](CCCN=C(N)N)NC(=O)[C@@H](N)CCCN=C(N)N)[C@@H](C)CC)C(=O)N[C@@H](CCCN=C(N)N)C(=O)N[C@@H](Cc1c[nH]c2ccccc12)C(=O)N[C@@H](Cc1ccc(O)cc1)C(N)=O` [RRRIKIRWY], the MIC is 23 µM and 11.9 µM in assay [12]; 23 µM (≈ 31 µg/mL) in assay [13]; 186 µM (≈ 251 µg/mL) in [14]; 23 µM (≈ 31 µg/mL) in [15]; 23 µM and 46.8 µM in [16].

`NC(=O)[C@H](Cc1c[nH]c2ccccc12)NC(=O)[C@H](Cc1c[nH]c2ccccc12)NC(=O)[C@H](CCCN=C(N)N)NC(=O)[C@H](CCCN=C(N)N)NC(=O)[C@H](Cc1c[nH]c2ccccc12)NC(=O)[C@H](Cc1c[nH]c2ccccc12)NC(=O)[C@H](CCCN=C(N)N)NC(=O)[C@H](Cc1c[nH]c2ccccc12)NC(=O)[C@H](Cc1c[nH]c2ccccc12)NC(=O)[C@@H](N)CCCN=C(N)N` [RWWRWWRRWW]: the MIC was not below 51.7 µM in assay [17]; more than 51.7 µM in assay [13]; 13.1 µM (≈ 23 µg/mL) with Vibrio cholerae non-O139; 26.1 µM (≈ 46 µg/mL) in [16]; 13.1 µM (≈ 23 µg/mL) against Vibrio cholerae non-O1; more than 51.7 µM in [18]. This molecule also showed an MIC in assay [19] of more than 51.7 µM.

Take `CC[C@H](C)[C@H](NC(=O)[C@H](Cc1c[nH]c2ccccc12)NC(=O)[C@@H](N)CO)C(=O)N[C@@H](CCCCN)C(=O)N[C@@H](CCCCN)C(=O)N[C@@H](CC(=O)O)C(=O)N[C@@H](CCCCN)C(=O)N[C@@H](Cc1ccccc1)C(=O)N1CCC[C@H]1C(=O)N[C@@H](CO)C(=O)N[C@@H](CO)C(=O)N[C@H](C(=O)NCC(=O)N1CCC[C@H]1C(=O)N[C@@H](Cc1ccc(O)cc1)C(=O)N[C@@H](CC(N)=O)C(=O)N1CCC[C@H]1C(=O)N[C@@H](CC(N)=O)C(=O)N1CCC[C@H]1C(=O)N1CCC[C@H]1C(=O)N1CCC[C@H]1C(=O)N1CCC[C@H]1C(=O)N[C@@H](CCCN=C(N)N)C(=O)N[C@@H](Cc1ccccc1)C(=O)O)[C@@H](C)O` [SWIKKDKFPSSTGPYNPNPPPPRF]: the MIC (in [20]; against Escherichia coli D31) was not below 100 µM each time.

With `CC[C@H](C)[C@H](NC(=O)[C@@H](NC(=O)[C@H](CCCCN)NC(=O)[C@@H](NC(=O)[C@H](CCCCN)NC(=O)[C@@H]1CCCN1C(=O)[C@H](CCC(N)=O)NC(=O)[C@H](C)NC(=O)[C@@H](N)Cc1c[nH]c2ccccc12)[C@@H](C)O)C(C)C)C(=O)N1CCC[C@H]1C(=O)N[C@@H](Cc1ccc(O)cc1)C(=O)N[C@H](C(=O)N[C@@H](CCCN=C(N)N)C(=O)N[C@@H](Cc1ccc(O)cc1)C(=O)N[C@@H](CC(C)C)C(=O)O)C(C)C` [WAQPKTKVIPYVRYL], the minimal inhibitory concentration (MIC) in assay [21] and in assay [22] was not below 39.1 µM each time.

In the case of `NC(N)=NCCC[C@H](NC(=O)[C@H](Cc1cnc[nH]1)NC(=O)[C@H](Cc1c[nH]c2ccccc12)NC(=O)[C@H](Cc1ccccc1)NC(=O)[C@H](CCCN=C(N)N)NC(=O)[C@H](CCCN=C(N)N)NC(=O)[C@@H](N)Cc1c[nH]c2ccccc12)C(=O)O` [WRRFWHR], the minimum inhibitory concentration (MIC) is not below 50 µM in [23]; not below 100 µM in assay [24]; not below 100 µM in [25]; 25 µM (≈ 28.6 µg/mL) in [26]; 25 µM (≈ 28.6 µg/mL) in the assay with Escherichia coli AS1.349; not below 50 µM in assay [27]. Besides, the minimum inhibitory concentration (MIC) was 25 µM (≈ 28.6 µg/mL) in assay [28], 25 µM (≈ 28.6 µg/mL) in [29], 25 µM (≈ 28.6 µg/mL) against Bacillus cereus AS1.126 and not below 100 µM in assay [30].
